Measurements: patent US7265152B2 (ViroPharma Incorporated, priority 2002, dated 2007)
pEC50, pIC50: −log10 of the molar value. Like-named read-outs stand apart in the source and are kept apart here.

How the values were obtained:
[1] = system: HCV replicon (BB7 sequence) in Huh-7-Clone A cells; test: HCV replicon assay: ELISA of NS5A protein in replicon-containing cells (Inhibition of Viral RNA Replication); assay type: cell-based; details: read-out: Replicon
Procedure, shortened: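 Huh-7-Clone A cells carrying subgenomic BB7 HCV replicon (G418-selectable) incubated 72 h with compound. NS5A protein quantified by cell ELISA: glutaraldehyde fixation, anti-NS5A monoclonal plus HRP secondary, TMB read at OD 650 nm. EC50 derived from 8-point serial dilution dose curve.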

HCV NS5B = molecular target: T1, HCV NS5B (Hepatitis C virus genotype 1b, UniProt Q9WMX2); test: Inhibition of viral RNA-dependent RNA polymerase (RdRp), in vitro biochemical assay; design: species or system HCV genotype 1b virus (BB7); details: read-out: HCV pol-BB7 IC50
T1 construct: fusion protein, of which the carboxyl terminal 21 amino acids were removed to enhance its solubility; His tag (GSHHHHHH); made in house; host or cells: E. coli
Procedure, shortened: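 Purified recombinant NS5B from a genotype 1b consensus (BB7), His-tagged, E. coli-expressed, with the C-terminal 21 residues deleted. Inhibition of RdRp activity in vitro was measured, and IC50 is the concentration giving 50% inhibition.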

[2] = Hepatitis C virus, HCV replicon, range of EC50
[3] = HCV NS5B RdRp, BB7, reported as range class
[4] = Hepatitis C virus, HCV replicon assay, ranges of EC50
[5] = HCV NS5B RdRp, BB7, class symbols A-D
[6] = HCV NS5B RdRp, BB7, activity class
[7] = Hepatitis C virus, ranges of EC50 in HCV replicon assay
[8] = Hepatitis C virus, Huh-7-Clone A, NS5A ELISA, 72-hour incubation, ranges of EC50
[9] = purified His-tagged NS5B (BB7), carboxyl terminal 21 amino acids removed
[10] = HCV NS5B polymerase, BB7 (genotype 1b), values given as range classes A-D

With `CNC(=O)c1c(-c2ccc(F)cc2)oc2cc(Nc3c(C)noc3C)c(OC(C)C)cc12` [Example 235, 6-(3,5-Dimethyl-isoxazol-4-ylamino)-2-(4-fluoro-phenyl)-5-isopropoxy-benzofuran-3-carboxylic acid methylamide] as the compound, how does the pEC50 [1, 2] read?
The pEC50 was under 4.52.

And the pIC50 (HCV NS5B; [3])?
The pIC50 was 4.52 to 5.30.

Which results are given for `CNC(=O)c1c(-c2ccc(F)cc2)oc2cc(C3CNC(=O)C3)c(OC)cc12` (stereo not drawn) [Example 315, 2-(4-Fluoro-phenyl)-5-methoxy-6-(5-oxo-pyrrolidin-3-yl)-benzofuran-3-carboxylic acid methylamide]?
pEC50 [1, 4]: > 5.00; pIC50 (HCV NS5B; [5]): ≥ 6.30

With `CCNc1cc2oc(-c3ccc(F)cc3)c(C(=O)NC)c2cc1OCCCOCC` [Example 367, 5-(3-Ethoxy-propoxy)-6-ethylamino-2-(4-fluoro-phenyl)-benzofuran-3-carboxylic acid methylamide] as the compound, how does the pEC50 [1, 4] read?
Its pEC50 is over 6.00.

And the pIC50 (HCV NS5B; [6])?
Its pIC50 is at least 6.30.

Which results are given for `CNC(=O)c1c(-c2ccc(F)cc2)oc2cc(N(C)S(C)(=O)=O)c(C3CC3)cc12` [Example 437, 5-Cyclopropyl-2-(4-fluoro-phenyl)-6-(methanesulfonyl-methyl-amino)-benzofuran-3-carboxylic acid methylamide]?
pEC50 [1, 4]: > 6.00; pIC50 (HCV NS5B; HCV NS5B RdRp, BB7 (genotype 1b), reported as class symbols): ≥ 6.30

Which results are given for `CNC(=O)c1c(-c2ccc(F)cc2)oc2cc(N(Cc3cscn3)S(C)(=O)=O)c(OC)cc12` [Example 291, 2-(4-Fluoro-phenyl)-6-(methanesulfonyl-thiazol-4-ylmethyl-amino)-5-methoxy-benzofuran-3-carboxylic acid methylamide]?
pEC50 [1, 4]: > 6.00; pIC50 (HCV NS5B; [5]): ≥ 6.30

How did the pEC50 [1, 7] turn out when `CNC(=O)c1c(-c2ccc(F)cc2)oc2cc(N)c(OCc3ccccc3)cc12` [Example 120, 6-Amino-5-benzyloxy-2-(4-fluoro-phenyl)-benzofuran-3-carboxylic acid methylamide] was run?
The pEC50 was over 5.00.

And the pIC50 (HCV NS5B; HCV NS5B RdRp, BB7 genotype 1b)?
The pIC50 was at least 6.30.

`CNC(=O)c1c(-c2ccc(F)cc2)oc2cc(N(Cc3nccs3)S(C)(=O)=O)c(OC(C)C)cc12` [Example 285, 2-(4-Fluoro-phenyl)-5-isopropoxy-6-(methanesulfonyl-thiazol-2-ylmethyl-amino)-benzofuran-3-carboxylic acid methylamide] was tested. Which pEC50 [1, 4] did it give?
The pEC50 was over 6.00.

And the pIC50 (HCV NS5B; [5])?
The pIC50 was at least 6.30.

`CNC(=O)c1c(-c2ccc(F)cc2)oc2cc(C3CCCN3C(C)=O)c(OC)cc12` (stereo not drawn) [Example 47, 6-(1-Acetyl-pyrrolidin-2-yl)-2-(4-fluoro-phenyl)-5-methoxy-benzofuran-3-carboxylic acid methylamide] was tested. Which pEC50 [1, 8] did it give?
The pEC50 was over 6.00.

What about the pIC50 (HCV NS5B; [9]) of the same compound?
The pIC50 was at least 6.30.

With `CNC(=O)c1c(-c2ccc(F)cc2)oc2cc(N(CCOC)S(C)(=O)=O)c(OC(C)C)cc12` [Example 193, 2-(4-Fluoro-phenyl)-5-isopropoxy-6-[methanesulfonyl-(2-methoxy-ethyl)-amino]-benzofuran-3-carboxylic acid methylamide] as the compound, how does the pEC50 [1, 2] read?
The pEC50 was over 6.00.

And the pIC50 (HCV NS5B; [3])?
The pIC50 was at least 6.30.

With `CNC(=O)c1c(-c2ccc(F)cc2)oc2cc(-c3c(C)noc3C)c(OCCN3CCC(C#N)CC3)cc12` [Example 419, 5-[2-(4-Cyano-piperidin-1-yl)-ethoxy]-6-(3,5-dimethyl-isoxazol-4-yl)-2-(4-fluoro-phenyl)-benzofuran-3-carboxylic acid methylamide] as the compound, how does the pEC50 ([1]; Hepatitis C virus, HCV replicon assay, ranges of 50% effective concentration (EC50)) read?
Its pEC50 is over 6.00.

And the pIC50 (HCV NS5B; [10])?
Its pIC50 is at least 6.30.

How did the pEC50 [1, 7] turn out when `CNC(=O)c1c(-c2ccncc2)oc2ccc(OC)cc12` [Example 107, 5-Methoxy-2-pyridin-4-yl-benzofuran-3-carboxylic acid methylamide] was run?
The pEC50 was over 4.00.

What about the pIC50 (HCV NS5B; HCV NS5B RdRp, BB7 genotype 1b) of the same compound?
The pIC50 was 5.30 to 6.30.

Which results are given for `CNC(=O)c1c(-c2ccccc2)oc2ccc(OCC(F)(F)F)cc12` [Example 11, 2-Phenyl-5-(2,2,2-trifluoro-ethoxy)-benzofuran-3-carboxylic acid methylamide]?
pEC50 [1, 8]: > 4.52; pIC50 (HCV NS5B; [9]): < 4.52

With “2-(4-Fluoro-phenyl)-5-methoxy-6-(5-methyl-[1,3,4]oxadiazol-2-yl)-benzofuran-3-carboxylic acid methylamide [Example 430]” as the compound, how does the pEC50 ([1]; HCV replicon assay, ranges of 50% effective concentration (EC50)) read?
The pEC50 was over 5.00.

What about the pIC50 (HCV NS5B; [10]) of the same compound?
The pIC50 was at least 6.30.

`CNC(=O)c1c(-c2ccc(F)cc2)oc2cc(N(C)S(C)(=O)=O)c(Oc3nc(CCl)ns3)cc12` [Example 321, 5-(3-Chloromethyl-[1,2,4]thiadiazol-5-yloxy)-2-(4-fluoro-phenyl)-6-(methanesulfonyl-methyl-amino)-benzofuran-3-carboxylic acid methylamide] was tested. Which pEC50 [1, 4] did it give?
The pEC50 was over 6.00.

What about the pIC50 (HCV NS5B; [5]) of the same compound?
Its pIC50 is at least 6.30.

`CNC(=O)c1c(-c2ccc(F)cc2)oc2cc(C3CCCN3S(C)(=O)=O)c(OC)cc12` (stereo not drawn) [Example 309, 2-(4-Fluoro-phenyl)-6-(1-methanesulfonyl-pyrrolidin-2-yl)-5-methoxy-benzofuran-3-carboxylic acid methylamide] was tested. Which pEC50 [1, 4] did it give?
The pEC50 was over 6.00.

And the pIC50 (HCV NS5B; [5])?
The pIC50 was at least 6.30.

Which results are given for `CNC(=O)c1c(-c2ccc(F)cc2)oc2cc(-c3cc(CO)on3)c(OC(C)C)cc12` [Example 37, 2-(4-Fluoro-phenyl)-6-(5-hydroxymethyl-isoxazol-3-yl)-5-isopropoxy-benzofuran-3-carboxylic acid methylamide]?
pEC50 [1, 8]: > 6.00; pIC50 (HCV NS5B; [9]): ≥ 6.30

How did the pEC50 [1, 7] turn out when `CNC(=O)c1c(-c2ccc(F)cc2)oc2cc(N3CCC(O)CC3)c(OC(C)C)cc12` [Example 140, 2-(4-Fluoro-phenyl)-6-(4-hydroxy-piperidin-1-yl)-5-isopropoxy-benzofuran-3-carboxylic acid methylamide] was run?
The pEC50 was over 5.00.

What about the pIC50 (HCV NS5B; HCV NS5B RdRp, BB7 genotype 1b) of the same compound?
The pIC50 was 5.30 to 6.30.

Which results are given for `CNC(=O)c1c(-c2ccc(F)cc2)oc2cc(N3CCOCC3)c(OCc3nnc(-c4ccc(C)cc4)o3)cc12` [Example 207, 2-(4-Fluoro-phenyl)-6-morpholin-4-yl-5-(5-p-tolyl-[1,3,4]oxadiazol-2-ylmethoxy)-benzofuran-3-carboxylic acid methylamide]?
pEC50 [1, 2]: > 5.00; pIC50 (HCV NS5B; [3]): 4.52 to 5.30

What does the source list for `CNC(=O)c1c(-c2ccc(F)cc2)oc2cc(N(CCO)S(C)(=O)=O)c(OC(C)C)cc12` [Example 164, 2-(4-Fluoro-phenyl)-6-[(2-hydroxy-ethyl)-methanesulfonyl-amino]-5-isopropoxy-benzofuran-3-carboxylic acid methylamide]?
pEC50 [1, 7]: > 5.00; pIC50 (HCV NS5B; HCV NS5B RdRp, BB7 genotype 1b): ≥ 6.30

How did the pEC50 [1, 8] turn out when `CNC(=O)c1c(-c2ccc(F)cc2)oc2cc(-c3nocc3CCO)c(OC)cc12` [Example 41, 2-(4-Fluoro-phenyl)-6-[4-(2-hydroxy-ethyl)-isoxazol-3-yl]-5-methoxy-benzofuran-3-carboxylic acid methylamide] was run?
The pEC50 was over 6.00.

And the pIC50 (HCV NS5B; [9])?
The pIC50 was at least 6.30.

What does the source list for `CNC(=O)c1c(-c2ccc(F)cc2)oc2cc(N(C)S(C)(=O)=O)c(OC(F)F)cc12` [Example 298, 5-Difluoromethoxy-2-(4-fluoro-phenyl)-6-(methanesulfonyl-methyl-amino)-benzofuran-3-carboxylic acid methylamide]?
pEC50 [1, 4]: > 6.00; pIC50 (HCV NS5B; [5]): ≥ 6.30

How did the pEC50 [1, 4] turn out when `CNC(=O)c1c(-c2ccc(F)cc2)oc2cc(N(C)S(C)(=O)=O)c(OCC(=O)c3ccc(F)cc3)cc12` [Example 360, 2-(4-Fluoro-phenyl)-5-[2-(4-fluoro-phenyl)-2-oxo-ethoxy]-6-(methanesulfonyl-methyl-amino)-benzofuran-3-carboxylic acid methylamide] was run?
Its pEC50 is over 6.00.

What about the pIC50 (HCV NS5B; [6]) of the same compound?
The pIC50 was at least 6.30.

`CNC(=O)c1c(-c2ccc(F)cc2)oc2ccc(OC(C)C)cc12` [Example 65, 2-(4-Fluoro-phenyl)-5-isopropoxy-benzofuran-3-carboxylic acid methylamide] was tested. Which pEC50 [1, 8] did it give?
The pEC50 was over 4.52.

And the pIC50 (HCV NS5B; [9])?
Its pIC50 is 5.30 to 6.30.

How did the pEC50 [1, 8] turn out when `CNC(=O)c1c(-c2ccc(F)cc2)oc2ccc(Cl)cc12` [Example 73, 5-Chloro-2-(4-fluoro-phenyl)-benzofuran-3-carboxylic acid methylamide] was run?
Its pEC50 is over 5.00.

And the pIC50 (HCV NS5B; [9])?
Its pIC50 is 5.30 to 6.30.
